# Earlier results in PubChem BioAssay AID1259410 (Chemical Carcinogenesis Research Information System (CCRIS), 2018).
# Test system: rodent tumor promotion studies, tumor incidence
# Assay: CCRIS tumor promotion studies
structure (smiles),measurement,setting,value
CCC(=O)O[C@H]1CC[C@H]2[C@@H]3CCC4=CC(=O)CC[C@]4(C)[C@H]3CC[C@]12C,outcome,"Carcinogen: 3,2'-DIMETHYL-4-AMINOBIPHENYL, 13394-86-0, Doses [Carcinogen]: 50 MG/KG 1/2 WK FOR 20 WK, Doses [Promoter]: CONTINUOUS ADMINISTRATION TO CASTRATED RATS FOR 40 WK, IMPLANTS REPLACED AT 6-WK INTERVALS (STUDY DURATION: 60 WK), Route [Carcinogen]: SUBCUTANEOUS, Route [Promoter]: SUBCUTANEOUS IMPLANT, Species: RAT, Strain/Sex: F344/MALE",prostate: carcinoma; seminal vesicle: carcinoma
same,outcome,"Carcinogen: 3,2'-DIMETHYL-4-AMINOBIPHENYL, 13394-86-0, Doses [Carcinogen]: 50 MG/KG 1/2 WK FOR A TOTAL OF 10 INJECTIONS, Doses [Promoter]: 0, 40 MG IN SILASTIC TUBES IMPLANTED 1 WK PRIOR TO CARCINOGEN TREATMENT AND CONTINUING FOR DURATION OF STUDY WITH REPLAC, Route [Carcinogen]: SUBCUTANEOUS, Route [Promoter]: SUBCUTANEOUS IMPLANT, Species: RAT, Strain/Sex: F344/MALE",dorsolateral prostate: carcinoma; seminal vesicle: carcinoma
same,outcome,"Carcinogen: 3,2'-DIMETHYL-4-AMINOBIPHENYL, 13394-86-0, Doses [Carcinogen]: 50 MG/KG 1/2 WK FOR A TOTAL OF 10 INJECTIONS, Doses [Promoter]: 0, 100 MG/KG 1/D FOR 3 D PRECEDING EACH CARCINOGEN DOSE (STUDY DURATION: 56 WK), Route [Carcinogen]: SUBCUTANEOUS, Route [Promoter]: SUBCUTANEOUS, Species: RAT, Strain/Sex: F344/MALE",skin/subcutis: tumor
same,outcome,"Carcinogen: 3,2'-DIMETHYL-4-AMINOBIPHENYL, 13394-86-0, Doses [Carcinogen]: 50 MG/KG 1/2 WK FOR A TOTAL OF 10 INJECTIONS, Doses [Promoter]: 0, 100 MG/KG 1/D FOR 3 D PRECEDING EACH CARCINOGEN DOSE THEN 0, 40 MG IN SILASTIC TUBES IMPLANTED POST LAST CARCINOGEN D, Doses [Promoter]: 0, 100 MG/KG 1/D FOR 3 D PRECEDING EACH CARCINOGEN DOSE THEN 0, 40 MG IN SILASTIC TUBES IMPLANTED POST LAST CARCINOGEN D, Route [Carcinogen]: SUBCUTANEOUS, Route [Promoter]: SUBCUTANEOUS, Species: RAT, Strain/Sex: F344/MALE",dorsolateral prostate: carcinoma; seminal vesicles: carcinoma
same,outcome,"Carcinogen: 3,2'-DIMETHYL-4-AMINOBIPHENYL, 13394-86-0, Doses [Carcinogen]: 50 MG/KG BW 1/2 WK FOR 10 DOSES, Doses [Promoter]: 20, 40 MG/SILASTIC TUBE IMPLANT REPLACED AT 6 WK INTERVALS (STUDY DURATION: 60 WK), Route [Carcinogen]: SUBCUTANEOUS, Route [Promoter]: SUBCUTANEOUS, Species: RAT, Strain/Sex: F344/MALE",prostate (anterior): carcinoma; seminal vesicles: carcinoma
same,outcome,"Carcinogen: 3,2'-DIMETHYL-4-AMINOBIPHENYL, 58109-32-3, Doses [Carcinogen]: 50 MG/KG BW 1/2 WK FOR 20 WK, Doses [Promoter]: 0, 40 MG BEGINNING POST CARCINOGEN TREATMENT AND RENEWED AT 6 WK INTERVALS FOR 40 WK (STUDY DURATION: 60 WK), Route [Carcinogen]: SUBCUTANEOUS, Route [Promoter]: SUBCUTANEOUS IMPLANT, Species: RAT, Strain/Sex: F344/MALE",seminal vesicles: carcinoma
same,outcome,"Carcinogen: 17 BETA-ESTRADIOL [50-28-2], Doses [Carcinogen]: 22 MG AT 3 MO OF AGE ONCE/3 MO FOR 1 YR, Doses [Promoter]: 0, 60 MG AT 3 MO OF AGE ONCE/3 MO FOR 1 YR (STUDY DURATION: 1 YR), Route [Carcinogen]: SUBCUTANEOUS IMPLANT, Route [Promoter]: SUBCUTANEOUS IMPLANT, Species: RAT, Strain/Sex: NOBLE/FEMALE (?,18)/(?/15)",mammary gland: tumor
same,outcome,"Carcinogen: 17 BETA-ESTRADIOL, 50-28-2, Doses [Carcinogen]: 22 MG AT 3 MO OF AGE ONCE EVERY 3 MO FOR 1 YR, Doses [Promoter]: 0, 120 MG AT 3 MO OF AGE, 1/3 MO FOR 1 YR (STUDY DURATION: 1 YR), Route [Carcinogen]: SUBCUTANEOUS IMPLANT, Route [Promoter]: SUBCUTANEOUS IMPLANT, Species: RAT, Strain/Sex: NOBLE/FEMALE",mammary gland: tumor
same,outcome,"Carcinogen: N-BUTYL-N-(4-HYDROXYBUTYL)NITROSAMINE [3817-11-6], Doses [Carcinogen]: 0.05% IN DRINKING WATER FOR 18 WK (STUDY DURATION: 18 WK), Doses [Promoter]: 0, 3 MG/KG BW FOR 18 WK (STUDY DURATION: 18 WK), Route [Carcinogen]: ORAL, Route [Promoter]: INTRAMUSCULAR, Species: MOUSE, Strain/Sex: C57B6/6/MALE",urinary bladder: tumor
same,outcome,"Carcinogen: N-METHYL-N-NITROSOUREA, 684-93-5, Doses [Carcinogen]: 30 MG/KG BW ONCE, Doses [Promoter]: 0, 25 MG IMPLANT CHANGED AT 2 MO INTERVALS FOR A TOTAL OF 3 TIMES (STUDY DURATION: 14 MO), Route [Carcinogen]: INTRAVENOUS, Route [Promoter]: SUBCUTANEOUS IMPLANT, Species: RAT, Strain/Sex: LOBUND-WISTAR/MALE",prostate/seminal vesicles: tumor
same,outcome,"Carcinogen: N-METHYL-N-NITROSOUREA, 684-93-5, Doses [Carcinogen]: 30 MG/KG ONCE, Doses [Promoter]: 0, 50 MG IN SILASTIC MEMBRANE IMPLANT BEGINNING 1 MO POST CARCINOGEN DOSE AND REPEATED AT INTERVALS OF 2 MO FOR A TOTAL, Route [Carcinogen]: INTRAVENOUS, Route [Promoter]: SUBCUTANEOUS IMPLANT, Species: RAT, Strain/Sex: LOBUND-WISTAR/MALE",prostate: adenocarcinoma
same,outcome,"Carcinogen: N-METHYL-N-NITROSOUREA, 684-93-5, Doses [Carcinogen]: 30 MG/KG ONCE, Doses [Promoter]: 0, 50 MG IN SILASTIC MEMBRANE IMPLANT BEGINNING 1 WK POST CARCINOGEN DOSE AND REPEATED AT INTERVALS OF 2 MO FOR A TOTAL, Route [Carcinogen]: INTRAVENOUS, Route [Promoter]: SUBCUTANEOUS IMPLANT, Species: RAT, Strain/Sex: LOBUND-WISTAR/MALE",prostate: adenocarcinoma
same,outcome,"Carcinogen: N-METHYL-N-NITROSOUREA, 684-93-5, Doses [Carcinogen]: 30 MG/KG ONCE, Doses [Promoter]: 0, 50 MG IN SILASTIC MEMBRANE IMPLANT BEGINNING 1 WK POST CARCINOGEN DOSE FOLLOWED BY SECOND IMPLANT 2 MO LATER (STUDY D, Route [Carcinogen]: INTRAVENOUS, Route [Promoter]: SUBCUTANEOUS IMPLANT, Species: RAT, Strain/Sex: LOBUND-WISTAR/MALE",prostate: adenocarcinoma
same,outcome,"Carcinogen: N-METHYL-N-NITROSOUREA, 684-93-5, Doses [Carcinogen]: 30 MG/KG ONCE, Doses [Promoter]: 0, 50 MG IN SILASTIC MEMBRANE IMPLANT BEGINNING 2 MO POST CARCINOGEN DOSE AND REPEATED AT INTERVALS OF 2 MO FOR A TOTAL, Route [Carcinogen]: INTRAVENOUS, Route [Promoter]: SUBCUTANEOUS IMPLANT, Species: RAT, Strain/Sex: LOBUND-WISTAR/MALE",prostate: adenocarcinoma
same,outcome,"Carcinogen: N-METHYLNITROSOUREA, 684-93-5, Doses [Carcinogen]: 15 MG/KG/BW 1/4 WK FOR 5 INJECTIONS EACH FOLLOWING 2 WK PRETREATMENT WITH DIETARY ETHINYL ESTRADIOL, Doses [Promoter]: 0, 40 MG IMPLANTS REPLACED AT 6 WK INTERVALS FOR 40 WK IN RATS MAINTAINED ON DIETS WITH OR WITHOUT HIGH FAT CONTENT (20%, Route [Carcinogen]: INTRAVENOUS, Route [Promoter]: SUBCUTANEOUS IMPLANT, Species: RAT, Strain/Sex: F344/MALE",seminal vesicles: carcinoma; congulating glands: carcinoma
same,outcome,"Carcinogen: N-NITROSOBIS(2-OXOPROPYL)AMINE, 60599-38-4, Doses [Carcinogen]: 20 MG/KG 1/4 WK FOR 5 INJECTIONS EACH FOLLOWING 2 WK PRETREATMENT WITH DIETARY ETHINYL ESTRADIOL, Doses [Promoter]: 0, 40 MG IMPLANTS REPLACED AT 6 WK INTERVALS FOR 40 WK IN RATS MAINTAINED ON DIETS WITH OR WITHOUT HIGH FAT CONTENT (20%, Route [Carcinogen]: SUBCUTANEOUS, Route [Promoter]: SUBCUTANEOUS IMPLANT, Species: RAT, Strain/Sex: F344/MALE",seminal vesicles: carcinoma
NC(=O)c1cccnc1,outcome,"Carcinogen: DIETHYLNITROSAMINE, 55-18-5, Doses [Carcinogen]: 25 MG/KG ONCE PRECEDED 24 HR BY 70% PARTIAL HEPATECTOMY, Doses [Promoter]: 0, 6.7, 30 MILLIMOLAR IN DRINKING WATER BEGINNING 2 WK POST CARCINOGEN DOSE (STUDY DURATION: 20 MO), Doses [Promoter]: 0, 6.7, 30 MILLIMOLAR IN DRINKING WATER BEGINNING 2 WK POST CARCINOGEN DOSE (STUDY DURATION: 20 MO), Route [Carcinogen]: INTRAPERITONEAL, Route [Promoter]: ORAL, Species: RAT, Strain/Sex: F344/MALE",kidney: tumor
CC1=C(/C=C/C(C)=C/C=C/C(C)=C/C(=O)O)C(C)(C)CCC1,outcome,"Carcinogen: 7,12-DIMETHYLBENZ[A]ANTHRACENE, 57-97-6, Doses [Carcinogen]: 50 NMOL IN 200 µL ACETONE 2/WK FOR 16 WK, Doses [Promoter]: 0, 0.5, 25 NMOL IN 200 µL ACETONE APPLIED 1 HR PRIOR TO CARCINOGEN DOSES 2/WK FOR 16 WK (STUDY DURATION: 16 WK), Doses [Promoter]: 0, 0.5, 25 NMOL IN 200 µL ACETONE APPLIED 1 HR PRIOR TO CARCINOGEN DOSES 2/WK FOR 16 WK (STUDY DURATION: 16 WK), Route [Carcinogen]: DERMAL, Route [Promoter]: DERMAL, Species: MOUSE, Strain/Sex: CD-1/FEMALE",skin: tumors
C=CC1CC=CCC1 (stereo not given),outcome,"Carcinogen: 7,12-Dimethylbenz(a)anthracene, 57-97-6, Doses [Carcinogen]: 100 ug once in sesame oil, administered 4 mo after vinylcyclohexene diepoxide dosing, Doses [Promoter]: 160 mg/kg bw for 25 days, administered daily in sesame oil, study duration 3 or 5 months, Route [Carcinogen]: Directly on ovary, Route [Promoter]: Intraperitoneal, Species: Rat, Strain/Sex: Fischer 344/Female",ovary: tumors (non-neoplastic cystic ovaries also observed)
Cc1ccc(O)cc1C,outcome,"Carcinogen: 7,12-DIMETHYLBENZ(A)ANTHRACENE, Doses [Carcinogen]: TOP, Route [Carcinogen]: DERMAL, Route [Promoter]: DERMAL, Species: MOUSE, Strain/Sex: FEMALE",integumentary system (skin)
